From ChEMBL document CHEMBL3046330, “Synthesis and biological activity of hydrazidehydrazones and their corresponding 3-acetyl-2,5-disubstituted-2,3-dihydro-1,3,4-oxadiazoles” (Med Chem Res, 2012)
Values after ≈ are worked out from the molar mass of the structure shown. Active and inactive are the calls of the source. The calls are words filed in the database; no cut-off is given here.

Tests used:
Candida albicans [1] = test: Antifungal activity against Candida albicans ATCC 90028 after 24 hr by NCCLS broth microdilution method; assay type: functional; conditions: ATCC 90028, 24 h
Cyberlindnera jadinii = test: Antifungal activity against Cyberlindnera jadinii NRRL Y-900 after 24 hr by NCCLS broth microdilution method; assay type: functional; conditions: Williopsis jadinii, NRRL Y-900, 24 h
Candida albicans [2] = test: Antifungal activity against Candida albicans clinical isolate after 24 hr by NCCLS broth microdilution method; assay type: functional
Candida tropicalis [3] = test: Antifungal activity against Candida tropicalis NRRL Y-12968 after 24 hr by NCCLS broth microdilution method; assay type: functional; conditions: NRRL Y-12968, 24 h
RAW264.7 = test: Cytotoxicity against Mus musculus (mouse) RAW264.7 cells up to 25 ug/ml; assay type: cell-based
Candida albicans [4] = test: Antifungal activity against Candida albicans clinical isolate at 2000 ug/ml by agar diffusion method; assay type: functional; conditions: read-out: IZ
Vero = test: Cytotoxicity against Chlorocebus aethiops (African green monkey) Vero cells assessed as cell viability up to 25 ug/ml after 48 hr by neutral red assay; assay type: cell-based; conditions: chlorocebus sabaeus
SK-MEL = test: Cytotoxicity against Homo sapiens (human) SK-MEL cells assessed as cell viability up to 25 ug/ml after 48 hr by neutral red assay; assay type: functional, cell-based
BT-549 = test: Cytotoxicity against Homo sapiens (human) BT549 cells assessed as cell viability up to 25 ug/ml after 48 hr by neutral red assay; assay type: functional, cell-based
[5] = target: T1, Nitric oxide synthase, inducible (Mus musculus) (UniProt P29477); test: Inhibition of iNOS in Mus musculus (mouse) RAW264.7 cells assessed as inhibition of LPS-induced nitrite production up to 25 ug/ml incubated for 30 min prior to LPS challenge measured after 24 hr by Griess assay relative to vehicle-treated control; assay type: cell-based
T1 sequence (whole entry): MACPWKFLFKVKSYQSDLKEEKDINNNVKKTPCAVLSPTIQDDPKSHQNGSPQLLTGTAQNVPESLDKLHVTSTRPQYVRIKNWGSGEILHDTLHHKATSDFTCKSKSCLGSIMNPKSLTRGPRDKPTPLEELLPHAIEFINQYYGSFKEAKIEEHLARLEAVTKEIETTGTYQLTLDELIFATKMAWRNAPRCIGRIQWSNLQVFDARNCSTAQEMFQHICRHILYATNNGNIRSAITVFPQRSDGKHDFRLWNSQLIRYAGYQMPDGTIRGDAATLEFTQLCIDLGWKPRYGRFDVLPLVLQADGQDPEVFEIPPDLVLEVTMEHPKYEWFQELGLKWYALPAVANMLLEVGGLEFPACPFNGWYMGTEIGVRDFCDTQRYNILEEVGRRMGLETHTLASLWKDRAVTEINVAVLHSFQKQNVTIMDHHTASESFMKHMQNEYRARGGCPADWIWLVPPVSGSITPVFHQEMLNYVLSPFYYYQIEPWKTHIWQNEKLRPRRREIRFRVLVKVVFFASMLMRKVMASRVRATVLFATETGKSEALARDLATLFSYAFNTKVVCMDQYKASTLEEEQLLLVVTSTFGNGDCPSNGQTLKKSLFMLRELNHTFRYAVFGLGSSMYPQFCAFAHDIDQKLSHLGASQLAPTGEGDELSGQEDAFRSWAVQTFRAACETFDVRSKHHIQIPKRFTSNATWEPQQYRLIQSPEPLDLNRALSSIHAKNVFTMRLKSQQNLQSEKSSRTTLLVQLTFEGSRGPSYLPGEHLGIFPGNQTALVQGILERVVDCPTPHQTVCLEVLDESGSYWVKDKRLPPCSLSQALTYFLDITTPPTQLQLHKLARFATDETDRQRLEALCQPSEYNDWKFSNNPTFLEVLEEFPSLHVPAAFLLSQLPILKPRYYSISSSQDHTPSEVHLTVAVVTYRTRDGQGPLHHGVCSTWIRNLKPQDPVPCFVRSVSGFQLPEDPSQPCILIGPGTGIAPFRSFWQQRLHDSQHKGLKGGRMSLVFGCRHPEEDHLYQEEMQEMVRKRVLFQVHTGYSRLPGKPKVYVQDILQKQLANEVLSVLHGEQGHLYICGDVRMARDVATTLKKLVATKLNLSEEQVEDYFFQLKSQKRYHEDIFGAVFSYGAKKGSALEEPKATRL

HL-60 [6] = test: Antioxidant activity in PMA-stimulated Homo sapiens (human) HL60 cells assessed as inhibition of intracellular ROS generation up to 25 ug/ml incubated for 30 min prior to PMA stimulation measured after 30 min by DCFH-DA assay relative to vehicle-treated control; assay type: functional, cell-based
SW1353 = test: Inhibition of PMA-induced NFkappaB activity in Homo sapiens (human) SW1353 cells up to 25 ug/ml incubated for 30 min followed by PMA induction for 8 hr by luciferase reporter gene assay; assay type: cell-based
[7] = Cytotoxicity against Sus scrofa (pig) LLC-PK11 cells assessed as cell viability up to 25 ug/ml after 48 hr by neutral red assay; assay type: cell-based; conditions: llc-pk11, 48 h
Transcription factor Sp1 = Transcription factor Sp1 (Homo sapiens, UniProt P08047); test: Inhibition of Sp1 (unknown origin) up to 25 ug/ml by luciferase reporter gene assay
HL-60 [8] = test: Cytotoxicity against Homo sapiens (human) HL60 cells up to 25 ug/ml; assay type: cell-based
Pichia kudriavzevii = test: Antifungal activity against Pichia kudriavzevii NRRL Y-7179 after 24 hr by NCCLS broth microdilution method; assay type: functional; conditions: NRRL Y-7179, 24 h
SK-OV-3 = test: Cytotoxicity against Homo sapiens (human) SKOV3 cells assessed as cell viability up to 25 ug/ml after 48 hr by neutral red assay; assay type: functional, cell-based
Candida tropicalis [9] = test: Antifungal activity against Candida tropicalis NRRL Y-12968 at 2000 ug/ml by agar diffusion method; assay type: functional; conditions: read-out: IZ
Candida parapsilosis = test: Antifungal activity against Candida parapsilosis NRRL Y-12696 after 24 hr by NCCLS broth microdilution method; assay type: functional; conditions: Lodderomyces parapsilosis, NRRL Y-12696, 24 h
Candida albicans [10] = test: Antifungal activity against Candida albicans NRRL Y-12983 after 24 hr by NCCLS broth microdilution method; assay type: functional; conditions: NRRL Y-12983, 24 h
KB = test: Cytotoxicity against Homo sapiens (human) KB cells assessed as cell viability up to 25 ug/ml after 48 hr by neutral red assay; assay type: functional, cell-based
Nakaseomyces glabratus = test: Antifungal activity against Candida glabrata clinical isolate after 24 hr by NCCLS broth microdilution method; assay type: functional
HL-60 [11] = test: Cytotoxicity against Homo sapiens (human) HL60 cells; assay type: cell-based
Botrytis cinerea = test: Antifungal activity against Botryotinia fuckeliana at 0.3 to 30 uM after 48 to 72 hr by broth microdilution method; assay type: functional, organism-based
Colletotrichum fragariae = test: Antifungal activity against Colletotrichum fragariae at 0.3 to 30 uM after 48 to 72 hr by broth microdilution method; assay type: functional, organism-based
[12] = target: T2, Nitric oxide synthase, inducible (Mus musculus, UniProt P29477); test: Inhibition of iNOS in Mus musculus (mouse) RAW264.7 cells assessed as inhibition of LPS-induced nitrite production incubated for 30 min prior to LPS challenge measured after 24 hr by Griess assay; assay type: cell-based
T2 sequence (P29477 whole entry): T1 sequence (whole entry)

Transcription factor Sp1, sequence (P08047 whole entry): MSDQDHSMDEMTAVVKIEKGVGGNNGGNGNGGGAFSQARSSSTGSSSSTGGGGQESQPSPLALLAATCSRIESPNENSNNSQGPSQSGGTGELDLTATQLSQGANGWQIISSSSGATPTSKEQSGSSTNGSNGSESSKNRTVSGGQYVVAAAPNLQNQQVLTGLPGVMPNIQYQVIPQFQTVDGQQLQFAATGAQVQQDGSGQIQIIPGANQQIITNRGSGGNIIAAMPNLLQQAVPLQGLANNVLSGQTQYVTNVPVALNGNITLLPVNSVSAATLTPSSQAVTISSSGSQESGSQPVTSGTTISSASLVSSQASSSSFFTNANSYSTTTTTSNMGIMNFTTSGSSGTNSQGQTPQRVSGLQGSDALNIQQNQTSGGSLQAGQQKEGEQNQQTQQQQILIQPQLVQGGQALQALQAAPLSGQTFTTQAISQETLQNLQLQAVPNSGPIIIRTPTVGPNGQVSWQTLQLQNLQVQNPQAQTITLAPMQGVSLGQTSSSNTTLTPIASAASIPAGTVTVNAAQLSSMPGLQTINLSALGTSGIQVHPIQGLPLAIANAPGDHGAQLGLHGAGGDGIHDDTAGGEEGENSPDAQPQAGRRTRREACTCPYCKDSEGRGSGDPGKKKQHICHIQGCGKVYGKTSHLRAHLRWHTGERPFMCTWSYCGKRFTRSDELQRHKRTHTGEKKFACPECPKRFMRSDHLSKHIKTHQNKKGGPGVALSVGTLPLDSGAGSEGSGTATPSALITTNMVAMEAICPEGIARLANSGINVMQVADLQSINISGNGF

Row | SMILES | MIC (Candida albicans [1]) [µg/mL] | MIC (Cyberlindnera jadinii) [µg/mL] | MIC (Candida albicans [2]) [µg/mL] | MIC (Candida tropicalis [3]) [µg/mL] | Activity (RAW264.7) | zone of inhibition at 2000 µg/mL (Candida albicans [4]) [mm] | Activity (Vero) | Activity (SK-MEL) | Activity (BT-549) | inhibition (HL-60 [6]) | inhibition (SW1353) | Activity [7] | inhibition (INH) (Transcription factor Sp1) | Activity (HL-60 [8]) | MIC (Pichia kudriavzevii) [µg/mL] | Activity (SK-OV-3) | zone of inhibition at 2000 µg/mL (Candida tropicalis [9]) [mm] | MIC (Candida parapsilosis) [µg/mL] | MIC (Candida albicans [10]) [µg/mL] | Activity (KB) | further results
1 | CC(=O)N1N=C(c2ccc(F)cc2)OC1/C=C/c1ccc(N(C)C)cc1 (centres undefined) | 500 (≈ 1410 µM) | 250 (≈ 707 µM) | 500 (≈ 1410 µM) | 125 (≈ 354 µM) | Non-toxic | 9 | Not Active | inactive | inactive | inactive | inactive | Not Active | Not Active | Non-toxic | 125 (≈ 354 µM) | inactive | 9 | 250 (≈ 707 µM) | 500 (≈ 1410 µM) | inactive | inhibition [5]: inactive; MIC (Nakaseomyces glabratus): 500 µg/mL (≈ 1410 µM)
2 | COc1cccc2c1C(=O)c1c(O)c3c(c(O)c1C2=O)C[C@@](O)(C(=O)CO)C[C@@H]3O[C@H]1C[C@H](N)[C@H](O)[C@H](C)O1 [DOXORUBICIN] |  |  |  |  |  |  |  |  |  |  |  |  |  |  |  |  |  |  |  |  | IC50 (HL-60 [11]): 0.16 µg/mL (≈ 0.294 µM)
3 | CC(=O)N1N=C(c2ccc(F)cc2)OC1c1ccc(Br)cc1 (centres undefined) | 1000 (≈ 2750 µM) | 500 (≈ 1380 µM) | 250 (≈ 688 µM) | 250 (≈ 688 µM) | Non-toxic | 9 | Not Active | inactive | inactive | inactive | inactive | Not Active | Not Active | Non-toxic | 500 (≈ 1380 µM) | inactive | 9 | 500 (≈ 1380 µM) | 500 (≈ 1380 µM) | inactive | Activity (Botrytis cinerea): inactive; Activity (Colletotrichum fragariae): inactive; IC50 [12]: > 68.8 µM; MIC (Nakaseomyces glabratus): 500 µg/mL (≈ 1380 µM)
4 | CN(C)c1ccc(/C=C/C=N/NC(=O)c2ccc(F)cc2)cc1 | 500 (≈ 1610 µM) | 500 (≈ 1610 µM) | 500 (≈ 1610 µM) | 500 (≈ 1610 µM) | Non-toxic | 9 | Not Active | inactive | inactive | inactive | inactive | Not Active | Not Active | Non-toxic | 500 (≈ 1610 µM) | inactive | 9 | 500 (≈ 1610 µM) | 500 (≈ 1610 µM) | inactive | inhibition [5]: inactive; MIC (Nakaseomyces glabratus): 500 µg/mL (≈ 1610 µM)
